Data as given in the SangsterLogP compilation.

Experiment: method code SF-AS, from PMID: 9631499

Compound | logP
Cc1cccc(-c2nnc(CCON=Cc3ccc(Cl)cc3Cl)o2)c1 | 4.28
Cc1ccc(-c2nnc(CCON=Cc3ccc(Cl)cc3)o2)cc1 | 3.57
Clc1ccc(C=NOCCc2nnc(-c3ccccc3)[nH]2)cc1 | 2.83
Clc1ccc(C=NOCCc2nnc(-c3ccccc3)o2)cc1 | 3.01
Cc1ccc(-c2nnc(CCON=Cc3ccc(Cl)cc3)[nH]2)cc1 | 3.39
Cc1ccc(C=NOCCc2nnc(-c3cccc(C)c3)o2)cc1 | 3.57
Cc1cccc(-c2nnc(CCON=Cc3ccc(Cl)cc3Cl)[nH]2)c1 | 4.1

Next, values leading:

logP | Compound
4.1 | Cc1ccc(-c2nnc(CCON=Cc3ccc(Cl)cc3Cl)[nH]2)cc1
4.28 | Cc1ccc(-c2nnc(CCON=Cc3ccc(Cl)cc3Cl)o2)cc1
3.39 | Cc1cccc(-c2nnc(CCON=Cc3ccc(Cl)cc3)[nH]2)c1
3.72 | Clc1ccc(C=NOCCc2nnc(-c3ccccc3)o2)c(Cl)c1
